According to patent US20220160651A1, “RAPIDLY IMPROVING ENDOTHELIAL FUNCTION, REDUCING ARTERIAL STIFFNESS AND REVERSING CALCIFICATION OF BLOOD VESSELS BY ADMINISTERING VITAMIN K” (KAYDENCE PHARMA AS, priority 2019, published 2022):
Where “and” joins values, the source holds several entries; their conditions need not be identical. Identical values can stand only once.

Columns and labels:
ApoE/LDLR−/− mice = experiment: MRI-based assessment of NO-dependent vasodilatation in BCA and LCA after acetylcholine (Example 2); type: in vivo; conditions: two months, 25 min after Ach
Experimental: The effects of low-doses (0.03 mg/kg b.w./day) as well as high-doses (10 mg/kg b.w./day) of vitamin K2 (MK-7), on endothelial function in mice with pre-established atherosclerosis was assessed. The mice were treated with K2 (MK-7) for two months and endothelial function was analyzed in vivo based on functional study (MRI based assessment of NO-dependent vasodilation) as well as by biochemical analysis (plasma nitrate and nitrite concentration). In addition, a comprehensive qualitative and quantitative histological analysis of the effects of K2 (MK-7) on vascular wall structure and atherosclerosis plaque composition was performed.
Endpoint assays: Magnetic resonance imaging (MRI)-based assessment of nitric oxide (NO)-dependent vasodilatation in brachiocephalic (BCA) and left common carotid artery (LCA) after acetylcholine (Ach) administration—by MRI 9.4T scanner, total time of measurements: 114 h (1.5 h per animal), acetylcholine (Ach, 16.6 mg/kg b.w.)
Studies were performed on 4-month old female ApoE/LDLR−/− mice, the model initially described by Ishibashi S, Herz J, Maeda N, Goldstein J, Brown M. The two-receptor model of lipoprotein clearance: tests of the hypothesis in “knockout” mice lacking the low density lipoprotein receptor, apolipoprotein E, or both proteins. Proc Natl Acad Sci USA 1994; 10:4431-5., and extensively characterized in previous studies, [see Kostogrys RB, Franczyk-Zarow M, Gasior-Glogowska M, Kus E, Jasztal A, Wrobel T P, et al. Anti-atherosclerotic effects of pravastatin in brachiocephalic artery in comparison with en face aorta and aortic roots in ApoE/LDLR−/− mice. Pharmacol Reports 2017; 69:112-8. doi:10.1016/j.pharep.2016.09.014; Tyrankiewicz U, Skorka T, Orzylowska A, Jablonska M, Jasinski K, Jasztal A, et al. Comprehensive MRI for the detection of subtle alterations in diastolic cardiac function in apoE/LDLR −/− mice with advanced atherosclerosis. […] End-diastolic volumes of BCA and LCA were analyzed using ImageJ software (1.46r NIH Bethesda, Md., USA) and scripts written in Matlab (MathWorks, Natick, Mass., USA) (FIG. 1A).

[1] = system: endothelial nitric oxide synthase (eNOS)-dependent nitric oxide (NO) production; experiment: Endothelial NO production in ex vivo aorta by EPR spin-trapping; conditions: 0.05 mg/kg b.w./day, vs untreated age-matched mice
From the text: For measurements of endothelial nitric oxide synthase (eNOS)-dependent nitric oxide (NO) production, EPR spin-trapping with diethyldithiocarbamic acid sodium salt (DETC) was used ex vivo, as described in Przyborowski K, Proniewski B, Czarny J, Smeda M, Sitek B, Zakrzewska A, et al. Vascular Nitric Oxide-Superoxide Balance and Thrombus Formation after Acute Exercise. Med Sci Sport Exerc 2018:1. doi:10.1249/MSS.0000000000001589, with minor modifications. Isolated aorta cleared from surrounding tissue was opened longitudinally and preincubated with 10 μM L-NIL (N6-(1-Iminoethyl)-lysine, hydrochloride) in Krebs-HEPES buffer for 30 minutes at 37° C. in a well of a 48-well plate. Next, 250 μL of Fe(DETC)2 colloid was added and aorta was stimulated with calcium ionophore A23187 (the final concentration was 1 μM) and subsequently, incubated for 90 minutes at 37° C. Finally, aorta was weighed and frozen in liquid nitrogen (suspended in fresh buffer) into the middle of a 400 μL column of Krebs-Hepes buffer and stored at −80° C. until measured. EPR spectra were obtained using an X-band EPR spectrometer (EMX Plus, Bruker, Germany), equipped with a rectangular resonator cavity H102. Signals were quantified by measuring the total amplitude of the NO-Fe(DETC)2 after correction of baseline. The quantitative results of NO production assessed by EPR were expressed in AU/mg of tissue.

Compound: CC(C)=CCC/C(C)=C/CC/C(C)=C/CC/C(C)=C/CC/C(C)=C/CC/C(C)=C/CC/C(C)=C/CC1=C(C)C(=O)c2ccccc2C1=O [MK-7, menaquinone-7]
- vessel volume change of BCA after Ach injection (ApoE/LDLR−/− mice; high dose 10 mg/kg b.w./day): 3.12%
- vessel volume change of LCA after Ach injection (ApoE/LDLR−/− mice; high dose 10 mg/kg b.w./day): 4.45%
- vessel volume change of LCA after Ach injection (ApoE/LDLR−/− mice; low dose 0.03 mg/kg b.w./day, listed as vitamin MK-7, 0.03 mg/kg/day): ~−3% and −3.92%
- nitric oxide production in ex vivo aorta by EPR [1]: increased nitric oxide production
